From ChEMBL document CHEMBL4138121, “Selective photocytotoxicity of anthrols on cancer stem-like cells: The effect of quinone methides or reactive oxygen species” (Eur J Med Chem, 2017)
Calls of active or inactive are those of the source. No cut-off for these calls is given here.

What was measured:
[1] = system: HCT-116; experiment: Photocytotoxicity against human HCT116 cells assessed as growth inhibition irradiated at 420 nm at 4, 24, 48 hrs post compound addition for 5 mins measured after 72 hrs by MTT assay; type: functional, cell-based; settings: HCT-116, light or radiation study
[2] = system: SUM-159-PT; experiment: Photocytotoxicity against human SUM159 cells assessed as growth inhibition irradiated at 420 nm at 4, 24, 48 hrs post compound addition for 5 mins measured after 72 hrs by MTT assay; type: functional, cell-based; settings: light or radiation study
[3] = Photocytotoxicity against HMLE-shGFP cells assessed as growth inhibition irradiated at 420 nm at 4, 24, 48 hrs post compound addition for 5 mins measured after 72 hrs by MTT assay; type: cell-based; settings: Homo sapiens, light or radiation study
[4] = Drug uptake in nucleus of HMLE-shGFP cells at 10 uM in absence of irradiation measured after 2 to 3 hrs by confocal microscopic method; type: ADME, subcellular; settings: human
[5] = system: MCF7; experiment: Cell cycle arrest in human MCF7 cells in presence of irradiation; type: functional, cell-based
[6] = system: HCT-116; experiment: Photocytotoxicity against human HCT116 cells assessed as growth inhibition irradiated at 350 nm at 4, 24, 48 hrs post compound addition for 5 mins measured after 72 hrs by MTT assay; type: functional, cell-based; settings: HCT-116, light or radiation study
[7] = Dark toxicity against human SUM159 cells after 72 hrs by MTT assay; type: cell-based, SUM-159-PT
[8] = Photocytotoxicity against HMLE-shEcad cells assessed as growth inhibition irradiated at 350 nm at 4, 24, 48 hrs post compound addition for 5 mins measured after 72 hrs by MTT assay; type: functional, cell-based; settings: Homo sapiens, light or radiation study
[9] = Dark toxicity against human H460 cells after 72 hrs by MTT assay; type: cell-based, NCI-H460
[10] = Drug uptake in cytoplasm of HMLE-shGFP cells at 10 uM in absence of irradiation measured after 2 to 3 hrs by confocal microscopic method; type: ADME, subcellular; settings: human
[11] = Drug uptake in cytoplasm of HMLE-shGFP cells at 5 uM irradiated at 420 nm for 5 mins measured after 2 to 3 hrs by confocal microscopic method; type: ADME, subcellular; settings: human
[12] = system: MCF7; experiment: Photocytotoxicity against human MCF7 cells assessed as growth inhibition irradiated at 420 nm at 4, 24, 48 hrs post compound addition for 5 mins measured after 72 hrs by MTT assay; type: functional, cell-based; settings: MCF7, light or radiation study
[13] = system: Calf thymus DNA; experiment: Binding affinity to calf thymus DNA at 4.2 x 10^-5 M by fluorescence spectrocopic method; type: nucleic-acid assay; settings: Bos taurus
[14] = system: SUM-159-PT; experiment: Cell cycle arrest in human SUM159 cells in presence of irradiation; type: functional, cell-based
[15] = Photocytotoxicity against HMLE-shEcad cells assessed as growth inhibition irradiated at 420 nm at 4, 24, 48 hrs post compound addition for 5 mins measured after 72 hrs by MTT assay; type: functional, cell-based; settings: Homo sapiens, light or radiation study
[16] = Dark toxicity against HMLE-shGFP cells after 72 hrs by MTT assay; type: cell-based; settings: human
[17] = system: MCF7; experiment: Photocytotoxicity against human MCF7 cells assessed as growth inhibition irradiated at 350 nm at 4, 24, 48 hrs post compound addition for 5 mins measured after 72 hrs by MTT assay; type: functional, cell-based; settings: MCF7, light or radiation study
[18] = system: NCI-H460; experiment: Photocytotoxicity against human H460 cells assessed as growth inhibition irradiated at 420 nm at 4, 24, 48 hrs post compound addition for 5 mins measured after 72 hrs by MTT assay; type: functional, cell-based; settings: NCI-H460, light or radiation study
[19] = Drug uptake in nucleus of HMLE-shGFP cells at 5 uM irradiated at 420 nm for 5 mins measured after 2 to 3 hrs by confocal microscopic method; type: ADME, subcellular; settings: human
[20] = Dark toxicity against HMLE-shEcad cells after 72 hrs by MTT assay; type: cell-based; settings: human
[21] = system: HMLE; experiment: Cytotoxicity against HMLE-shEcad cells at 10 uM irradiated at 420 nm at 4 hrs post compound addition for 5 mins measured after 48 hrs by propidium iodide staining-based flow cytometric method; type: functional, cell-based; settings: Homo sapiens
[22] = Cytotoxicity against HMLE-shGFP cells at 10 uM irradiated at 420 nm at 4 hrs post compound addition for 5 mins measured after 48 hrs by propidium iodide staining-based flow cytometric method; type: cell-based; settings: human
[23] = Dark toxicity against human MCF7 cells after 72 hrs by MTT assay; type: cell-based
[24] = system: Calf thymus DNA; experiment: Binding affinity to calf thymus DNA at 4.2 x 10^-5 M by UV-vis spectrocopic method; type: nucleic-acid assay; settings: Bos taurus
[25] = Cell cycle arrest in HMLE-shEcad cells at 1 to 5 uM after 24 to 48 hrs in absence of irradiation by propidium iodide staining-based flow cytometric method; settings: human
[26] = system: HMLE; experiment: Anticlonogenic activity against HMLE-shEcad cells at 0.5 to 1 uM irradiated at 350 nm at 4 hrs post compound addition for 5 mins for 5 mins measured after 24 hrs by crystal violet staining-based assay; type: functional, cell-based; settings: Homo sapiens
[27] = system: HMLE; experiment: Cell cycle arrest in HMLE-shEcad cells assessed as delay in S/G2 phase at 5 uM irradiated at 420 nm at 4 hrs post compound addition for 5 mins measured after 24 to 48 hrs by propidium iodide staining-based flow cytometric method; type: functional; settings: Homo sapiens
[28] = Photocytotoxicity against HMLE-shGFP cells assessed as growth inhibition irradiated at 350 nm at 4, 24, 48 hrs post compound addition for 5 mins measured after 72 hrs by MTT assay; type: cell-based; settings: Homo sapiens, light or radiation study
[29] = Drug uptake in plasma membranes of HMLE-shGFP cells at 5 uM irradiated at 420 nm for 5 mins measured after 2 to 3 hrs by confocal microscopic method; type: ADME, cell membranes, Plasma membrane; settings: human
[30] = Dark toxicity against human HCT116 cells after 72 hrs by MTT assay; type: cell-based, HCT-116
[31] = Cell cycle arrest in HMLE-shGFP cells assessed as delay in S/G2 phase at 5 uM irradiated at 420 nm at 4 hrs post compound addition for 5 mins measured after 24 to 48 hrs by propidium iodide staining-based flow cytometric method; settings: human
[32] = system: Calf thymus DNA; experiment: Binding affinity to calf thymus DNA at 4.2 x 10^-5 M in presence of irradiation at 420 nm for 5 mins by fluorescence spectrocopic method; type: nucleic-acid assay; settings: Bos taurus
[33] = Cell cycle arrest in HMLE-shGFP cells at 1 to 5 uM after 24 to 48 hrs in absence of irradiation by propidium iodide staining-based flow cytometric method; settings: human
[34] = Drug uptake in intracellular membranes of HMLE-shGFP cells at 5 uM irradiated at 420 nm for 5 mins measured after 2 to 3 hrs by confocal microscopic method; type: ADME, cell membranes, Intracellular membrane; settings: human
[35] = system: NCI-H460; experiment: Photocytotoxicity against human H460 cells assessed as growth inhibition irradiated at 350 nm at 4, 24, 48 hrs post compound addition for 5 mins measured after 72 hrs by MTT assay; type: functional, cell-based; settings: NCI-H460, light or radiation study
[36] = Drug uptake in cytoplasm of HMLE-shGFP cells at 5 uM irradiated with UV-light measured after 2 to 3 hrs by confocal microscopic method; type: ADME, subcellular; settings: human
[37] = system: HMLE; experiment: Cell cycle arrest in HMLE-shEcad cells assessed as accumulation at G2/M phase at 1 to 10 uM irradiated at 420 nm at 4 hrs post compound addition for 5 mins measured after 24 to 48 hrs by propidium iodide staining-based flow cytometric method; type: functional; settings: Homo sapiens
[38] = Drug uptake in nucleus of HMLE-shGFP cells at 5 uM irradiated with UV-light measured after 2 to 3 hrs by confocal microscopic method; type: ADME, subcellular; settings: human
[39] = Drug uptake in nucleus of HMLE-shEcad cells at 5 uM irradiated with UV-light measured after 2 to 3 hrs by confocal microscopic method; type: ADME, subcellular; settings: human
[40] = Anticlonogenic activity against HMLE-shGFP cells at 0.5 to 1 uM irradiated at 350 nm at 4 hrs post compound addition for 5 mins measured after 24 hrs by crystal violet staining-based assay; type: ADME, cell-based; settings: human
[41] = system: HMLE; experiment: Cell cycle arrest in HMLE-shEcad cells assessed as accumulation at S phase at 1 to 10 uM irradiated at 420 nm at 4 hrs post compound addition for 5 mins measured after 24 to 48 hrs by propidium iodide staining-based flow cytometric method; type: functional; settings: Homo sapiens
[42] = Induction of reactive oxygen species generation in HMLE-shGFP cells at 10 uM irradiated at 420 nm for 5 mins measured after 2 hrs by H2DCF-DA dye-based FACS analysis relative to non-irradiated cells; type: cell-based; settings: human
[43] = Cell cycle arrest in HMLE-shGFP cells assessed as accumulation at G2/M phase at 1 to 10 uM irradiated at 420 nm at 4 hrs post compound addition for 5 mins measured after 24 to 48 hrs by propidium iodide staining-based flow cytometric method; settings: human
[44] = Induction of reactive oxygen species generation in HMLE-shEcad cells at 10 uM irradiated at 420 nm for 5 mins measured after 2 hrs by H2DCF-DA dye-based FACS analysis relative to non-irradiated cells; type: functional, Homo sapiens
[45] = Drug uptake in cytoplasm of HMLE-shEcad cells at 5 uM irradiated with UV-light measured after 2 to 3 hrs by confocal microscopic method; type: ADME, subcellular; settings: human
[46] = Cell cycle arrest in HMLE-shEcad cells assessed as delay in G1/S phase at 1 to 10 uM after 24 to 48 hrs in absence of irradiation by propidium iodide staining-based flow cytometric method; settings: human
[47] = Cell cycle arrest in HMLE-shGFP cells assessed as accumulation at S phase at 1 to 10 uM irradiated at 420 nm at 4 hrs post compound addition for 5 mins measured after 24 to 48 hrs by propidium iodide staining-based flow cytometric method; settings: human

| SMILES | IC50 [1] [nM] | IC50 [2] [nM] | IC50 [3] [nM] | Activity [5] | IC50 [6] [nM] | IC50 at 72 h [7] [nM] | IC50 [8] [nM] | IC50 at 72 h [9] [nM] | IC50 [12] [nM] | Activity [14] | IC50 [15] [nM] | IC50 at 72 h [16] [nM] | IC50 [17] [nM] | IC50 [18] [nM] | IC50 at 72 h [20] [nM] | Activity [21] | Activity [22] | Activity [26] | IC50 [28] [nM] | IC50 at 72 h [30] [nM] | other results |
| --- | --- | --- | --- | --- | --- | --- | --- | --- | --- | --- | --- | --- | --- | --- | --- | --- | --- | --- | --- | --- | --- |
| OCc1cc2cc3ccccc3cc2cc1O | 1000 | 2000 | 1000 | inactive | 2000 | 11000 | 2000 | ≥ 100000 | 3000 | inactive | 1000 | 11000 | 2000 | 10000 | 17000 | Active | Toxic | Active | 700 | ≥ 100000 | Drug uptake [4]: Not Active; Drug uptake [10]: Active; Drug uptake [11]: Active; Activity [13]: inactive; Drug uptake [19]: Not Active; IC50 at 72 h [23]: ≥ 100000 nM; Activity [24]: inactive; Activity [25]: Non-Toxic; Activity [27]: Active; Drug uptake [29]: Active; Activity [31]: Toxic; Activity [32]: Active; Activity [33]: Non-Toxic; Drug uptake [34]: Active; IC50 [35]: 15000 nM |
| OCc1ccc2cc3ccccc3cc2c1 | 2000 | 1000 | 10000 | inactive | 1000 | 13000 | 1000 | 33000 | 2000 | inactive | 2000 | 33000 | 500 | 2000 | 22000 | Active | Toxic | inactive | 600 | > 100000 | Drug uptake [36]: Active; Activity [37]: Active; Drug uptake [38]: Not Active; Drug uptake [39]: Not Active; Activity [40]: Non-Toxic; Activity [41]: Active; fold change (FC) [42]: 4; Activity [43]: Non-Toxic; fold change (FC) [44]: 7; Drug uptake [45]: Active; Activity [46]: Toxic; IC50 [35]: 1000 nM; Activity [47]: Non-Toxic |
